# Experimental data: US20100184026A1, “Companion Diagnostic Assays For Endothelin Receptor Antagonists” (ABBOTT LABORATORIES, priority 2009, published 2010)
# Tests used:
# [1] = system: Mouse preosteoblastic MC3T3 cells; assay: Microarray analysis of gene expression in ET-treated mouse osteoblasts; format: cell-based; conditions: for # Genes Blocked by ABT-627, percent of genes induced by ET: drug added 1 hour prior to ET; for Induced by ET (number of genes): genes regulated ≧1.5-fold, p ≦0.01
# Description: (§1) Mouse MC3T3 pre-osteoblastic cells (subclone 4) were purchased from ATCC (Manassis, Va.) and propagated in αMEM media without ascorbic acid (Invitrogen, Carlsbad, Calif.) supplemented with 10% FBS (Invitrogen). Human Mesenchymal Stem Cells (MSCs) were purchased from Cambrex (Walkersville, Md.) and propagated according in MSCGM™ media (Cambrex). To initiate differentiation of the MSC into human osteoblasts, the growth media was replaced by osteogenic differentiation medium (OGM, Cambrex).
# (§2) Mouse preosteoblastic MC3T3 cells as well as primary human osteoblasts were treated with ET, from Sigma (St. Louis, Mo.), for 2, 4, and 6 hours in the absence or presence of the ETa receptor antagonist ABT-627, from Abbott Laboratories (Abbott Park, Ill.). The drug was added 1 hour prior to the addition of ET.
# Total RNA was extracted from the treated cell lines and purified on RNeasy columns (Qiagen, Valencia, Calif.). Labeled cRNA was prepared according to the microarray manufacturer Affymetrix's protocol and hybridized to either mouse 430A 2.0 or human U133A 2.0 arrays (Affymetrix, Santa Clara, Calif.). Gene expression fold changes for each treatment were calculated by combining three biological replicates for each treatment using the Rosetta Resolver's Affymetrix error model software and building a ratio from the resulting values. All genes regulated ≧1.5-fold with a p-value of ≦0.01 were retained for further analysis. Conventional two-dimensional clustering was then performed by using the agglomerative hierarchical clustering algorithm. The Euclidean distance was used as the similarity metric.
# [2] = system: metastatic hormone-refractory prostate cancer; conditions: patients with metastatic hormone-refractory prostate cancer; Nelson et al. 2003; cited from earlier work
# osteoblastic metastases = conditions: Yin et al. 2003; cited from earlier work
# [3] = system: mouse MC3T3 osteoblast cell line; assay: ELISA assays of secreted PAI-1, OPG and IL-6 in osteoblast supernatants; format: cell-based
# Description: as §1
# Mouse MC3T3 osteoblast cells were propagated as set out above, and at times indicated were harvested and spun at 250×g for 10 minutes at room temperature. The clarified supernatants were aliquoted and frozen until analyzed. 200 microliters of each sample was tested in quadruplicate by commercially available ELISA assay kits for PAI-1 (Molecular Innovations, Southfield, Mich.), OPG (Biomedica, San Diego, Calif.) and IL-6 (Ray Biotech, Norcross, Ga.). The ELISA tests were performed according to the manufacturer's instructions. Data from these tests are shown in FIG. 1 (PAI-1), FIG. 2 (OPG) and FIG. 3 (IL-6).
# [4] = system: primary human osteoblasts; assay: Microarray analysis of gene expression in ET-treated primary human osteoblasts; format: cell-based; conditions: ET-1 treatment
# Description: as §1, §2
# Total RNA was extracted from the treated cell lines and purified on RNeasy columns (Qiagen, Valencia, Calif.). Labeled cRNA was prepared according to the microarray manufacturer Affymetrix's protocol and hybridized to either mouse 430A 2.0 or human U133A 2.0 arrays (Affymetrix, Santa Clara, Calif.). Gene expression fold changes for each treatment were calculated by combining three biological replicates for each treatment using the Rosetta Resolver's Affymetrix error model software and building a ratio from the resulting values. […]
# [5] = endothelin in the presence of ABT-627
smiles,measurement,setting,value
"CCCCN(CCCC)C(=O)CN1C[C@H](c2ccc3c(c2)OCO3)[C@@H](C(=O)O)[C@@H]1c1ccc(OC)cc1 [ABT-627, (2R,3R,4S)-(+)-2-(4-Methoxyphenyl)-4-(1,3-benzodioxol-5-yl)-1-(N,N-di(n-butyl)aminocarbonylmethyl)-pyrrolidine-3-carboxylic acid]","# Genes Blocked by ABT-627, percent of genes induced by ET",[1]; 2 hr ET,(96%)
same,"# Genes Blocked by ABT-627, percent of genes induced by ET",[1]; 4 hr ET,(83%)
same,"# Genes Blocked by ABT-627, percent of genes induced by ET",[1]; 6 hr ET,(97%)
same,"Induction by ET of suppression-of-apoptosis genes (Nur77, Flt1, NFATc1)",[1]; ET in presence of ABT-627,the induction was blocked
same,Effect of pre-treatment on ET gene induction events,"[1]; all three timepoints (2, 4, 6 hours), pre-treatment before ET",abrogated almost all of these gene induction events
same,Gene expression changes caused by antagonist alone,"[1]; antagonist alone, no ET",very few gene expression changes
same,"Induction by ET-1 of osteoblastic maturation genes (OPG, COX-2, Dmp1, Tgfbi, CTGF, Klf10)",[1]; pre-treatment with ABT-627,blocked
same,Time to disease progression,[2],extended
same,Metastatic growth,osteoblastic metastases,suppressed
same,Endothelin-induced expression of IL-6 (ELISA),[3]; [5],substantial suppression
same,Endothelin-induced expression of OPG (ELISA),[3]; [5],substantial suppression
same,Endothelin-induced expression of PAI-1 (ELISA),[3]; [5],substantial suppression
CC[C@H](C)[C@H](NC(=O)[C@H](CC(=O)O)NC(=O)[C@H](CC(C)C)NC(=O)[C@H](Cc1c[nH]cn1)NC(=O)[C@@H]1CSSC[C@H](N)C(=O)N[C@@H](CO)C(=O)N[C@H]2CSSC[C@H](NC(=O)[C@H](CCC(=O)O)NC(=O)[C@H](CCCCN)NC(=O)[C@H](CC(=O)O)NC(=O)[C@H](CCSC)NC(=O)[C@H](CC(C)C)NC(=O)[C@H](CO)NC(=O)[C@H](CO)NC2=O)C(=O)N[C@@H](C(C)C)C(=O)N[C@@H](Cc2ccc(O)cc2)C(=O)N[C@@H](Cc2ccccc2)C(=O)N1)C(=O)N[C@H](C(=O)N[C@@H](Cc1c[nH]c2ccccc12)C(=O)O)[C@@H](C)CC [ET],# Genes Down-regulated by ET,[1]; 2 hr ET treatment,423
same,Induced by ET (number of genes),[1]; 2 hr ET treatment,608
same,# Genes Down-regulated by ET,[1]; 4 hr ET treatment,295
same,Induced by ET (number of genes),[1]; 4 hr ET treatment,472
same,# Genes Down-regulated by ET,[1]; 6 hr ET treatment,95
same,Induced by ET (number of genes),[1]; 6 hr ET treatment,194
same,"Expression of suppression-of-apoptosis genes (Nur77, Flt1, NFATc1)",[1]; ET treatment,induced
same,"Expression of genes coding for secreted proteins (PAI-1, uPA, TGFbeta2, IL-6, IL-8)","[1]; mouse osteoblasts, ET-1 treatment",strongly upregulated
same,"Expression of genes coding for secreted proteins (PAI-1, uPA, TGFbeta2, IL-6, IL-8)",[4],strongly upregulated
same,Expression of IL-6 (ELISA),[3]; treatment with endothelin,strongly induced
same,Expression of OPG (ELISA),[3]; treatment with endothelin,strongly induced
same,Expression of PAI-1 (ELISA),[3]; treatment with endothelin,strongly induced
